Reference: ChEMBL document CHEMBL1697781, “Assessment of the health effects of chemicals in humans: II. Construction of an adverse effects database for QSAR modeling” (Curr Drug Discov Technol, 2004)

Assays:
Conditions in all cases: human; call rule not given here
[1] = tested on: Hepatotoxicity; test: FDA HLAED, lactate dehydrogenase (LDH) increase
[2] = tested on: Hepatotoxicity; test: FDA HLAED, liver enzyme composite activity
[3] = tested on: Hepatotoxicity; test: FDA HLAED, serum glutamic pyruvic transaminase (SGPT) increase
[4] = tested on: Hepatotoxicity; test: FDA HLAED, gamma-glutamyl transferase (GGT) increase
[5] = tested on: Hepatotoxicity; test: FDA HLAED, alkaline phosphatase increase
[6] = tested on: Hepatotoxicity; test: FDA HLAED, serum glutamic oxaloacetic transaminase (SGOT) increase

Structure (SMILES)	LDH Increase - Activity Score [1]	LDH Increase - Index Value [1]	LDH Increase - Number of Reports [1]	Composite Activity - Active [2]	Composite Activity - Marginal [2]	Composite Activity - Score [2]	SGPT Increase - Activity Score [3]	SGPT Increase - Index Value [3]	SGPT Increase - Number of Reports [3]	GGT Increase - Activity Score [4]	GGT Increase - Index Value [4]	GGT Increase - Number of Reports [4]	Alkaline Phosphatase Increase - Activity Score [5]	Alkaline Phosphatase Increase - Index Value [5]	Alkaline Phosphatase Increase - Number of Reports [5]	SGOT Increase - Activity Score [6]	SGOT Increase - Index Value [6]	SGOT Increase - Number of Reports [6]	further results
Cc1nc2n(c(=O)c1CCN1CCC(c3noc4cc(F)ccc34)CC1)CCCC2 [RISPERIDONE]	Inactive	0.9	>= 4	2	0	Active	Active	4.9	>= 4	Inactive	1.6	>= 4	Inactive	1.6	>= 4	Active	4.8	>= 4	
CC(NCCc1ccc(O)cc1)C(O)c1ccc(O)cc1 (configuration not stated) [RITODRINE]	Inactive	0	< 4	2	0	Active	Active	4.2	>= 4	Inactive	0	< 4	Inactive	1.1	< 4	Active	4.2	>= 4	
C=CC[N+]1([C@H]2C[C@H]3[C@@H]4CC[C@H]5C[C@H](O)[C@@H](N6CCOCC6)C[C@]5(C)[C@H]4CC[C@]3(C)[C@H]2OC(C)=O)CCCC1.[Br-] [ROCURONIUM BROMIDE]	Inactive	0	< 4	0	0	Inactive	Inactive	0	< 4	Inactive	0	< 4	Inactive	0	< 4	Inactive	0	< 4	
CCCN1CCCC[C@H]1C(=O)Nc1c(C)cccc1C [ROPIVACAINE]	Inactive	0	< 4	0	0	Inactive	Inactive	0	< 4	Inactive	0	< 4	Inactive	0	< 4	Inactive	0	< 4	
OCc1cc(C(O)CNCCCCCCOCCCCc2ccccc2)ccc1O (configuration not stated) [SALMETEROL]	Inactive	0	< 4	0	0	Inactive	Inactive	0.1	< 4	Inactive	0.1	< 4	Inactive	0	< 4	Inactive	0.1	< 4	
C#CCN(C)[C@H](C)Cc1ccccc1 [SELEGILINE]	Inactive	0	< 4	0	0	Inactive	Inactive	1.5	>= 4	Inactive	1.8	>= 4	Inactive	2.2	>= 4	Inactive	0.4	< 4	
CN[C@H]1CC[C@@H](c2ccc(Cl)c(Cl)c2)c2ccccc21 [SERTRALINE]	Inactive	0.9	>= 4				Inactive	2.1	>= 4	Inactive	2	>= 4	Inactive	2	>= 4	Inactive	2.7	>= 4	Composite Activity - Active ([2]; Liver): 0; Composite Activity - Marginal ([2]; Liver): 0; Composite Activity - Score ([2]; Liver): Inactive
FCOC(C(F)(F)F)C(F)(F)F [SEVOFLURANE]	Inactive	1.6	< 4	0	0	Inactive	Inactive	0	< 4	Inactive	0	< 4	Inactive	3.1	< 4	Inactive	4.6	< 4	
CC(C)NCC(O)c1ccc(NS(C)(=O)=O)cc1 (configuration not stated) [SOTALOL]	Inactive	1	< 4	0	0	Inactive	Inactive	0	< 4	Inactive	1	< 4	Inactive	1	< 4	Inactive	3	< 4	
